Data from patent US20250127162A1, “METHODS AND COMPOSITIONS FOR CONTROLLING PESTS IN RICE” (Globachem NV, priority 2022, published 2025).

What was measured:
Rice = experiment: Phytotoxicity PHYGEN on rice (Example 1, Trials 3-4, Thailand); format: in vivo; set-up: key: % leaf necrosis compared with untreated plants
Excerpt: “Low Phytotoxicity” of pelargonic acid, as used herein means that the toxic effect on plants is absent or at such a level so as not to adversely impact the growth and/or yield of the plant under a given set of test conditions, e.g., at a given concentration of pelargonic acid. Phytotoxic effects may be measured in a number of different ways, for example, according to the principals set out in OEPP/EPPO Bulletin (2014) 44 (3), 265-273 “PP 1/135 (4) Phytotoxicity assessment”. The phytotoxic effect on plants may be assessed visually as a function of the percentage of discoloration to the leaves and/or the appearance of necrosis. When the pelargonic acid compositions are applied to the foliage of the rice plants in accordance with the teachings herein, will typically result in a level of phytotoxicity of less than 20%, preferably less than 15%, more preferably less than 10% necrosis of the leaves in comparison to untreated plants. Preferred uses of the invention will typically result in phytotoxicity of 7% or less, whilst the most preferred uses will typically result in phytotoxicity of 5% or less. The above values are approximate as any purely visual assessment is likely to contain a degree of subjectivity.
(§1) All applications were made with an EC formulation containing 650 g/L of pelargonic acid (e.g., 685 g/L of 95% purity pelargonic acid), an anionic emulsifier and a branched fatty acid ester solvent.
Application A was made to the crops at the beginning of infestations; for these trials, Stage BBCH 59; Application B was made 14 days after Application A.
Trial 3 was conducted in Thailand using a water volume of 500 L/ha of water per application unless otherwise indicated. Insect Damage (DAMINS %), Insect Damage (Number) and Phytotoxicity were assessed at various treatment evaluation intervals.
Trial 4 was conducted in Thailand using a water volume of 500 L/ha of water per application unless otherwise indicated. Insect Damage (DAMINS %), Insect Damage (Number) and Phytotoxicity were assessed at various treatment evaluation intervals.

Diabrotica speciosa = experiment: Potato field trials, control of Diabrotica speciosa (Example 3); format: in vivo; details: 400 L water/ha, two applications 7 d apart, Actara 0.05 kg/ha
Excerpt: as §1, with “solvent. […]. […] Potatoes—Diabrotica speciosa (Cucurbit beetle)-DIABSC [table] [table]” for “solvent.”

With `CCCCCCCCC(=O)O` [PA 650 g/ha, pelargonic acid] the “Phytotoxicity (PHYGEN)” value (Rice; Trial 3, 0 DAA, water volume 200 L/ha) was 0, the “Phytotoxicity (PHYGEN)” value (Rice; Trial 3, 0 DAA, water volume 500 L/ha) was 0 and the “Phytotoxicity (PHYGEN)” value (Rice; Trial 3, 0 DAB, water volume 200 L/ha) was 0. For the same compound, the “Phytotoxicity (PHYGEN)” value (Rice; Trial 3, 0 DAB, water volume 500 L/ha) was 0, the “Phytotoxicity (PHYGEN)” value (Rice; Trial 3, 7 DAA, water volume 200 L/ha) was 0 and the “Phytotoxicity (PHYGEN)” value (Rice; Trial 3, 7 DAA, water volume 500 L/ha) was 0. The “Phytotoxicity (PHYGEN)” value (Rice; Trial 3, 7 DAB, water volume 200 L/ha) was 0, the “Phytotoxicity (PHYGEN)” value (Rice; Trial 3, 7 DAB, water volume 500 L/ha) was 0 and the “Phytotoxicity (PHYGEN)” value (Rice; Trial 3, 10 DAA, water volume 200 L/ha) was 0. For the same compound, the “Phytotoxicity (PHYGEN)” value (Rice; Trial 3, 10 DAA, water volume 500 L/ha) was 0, the “Phytotoxicity (PHYGEN)” value (Rice; Trial 3, 10 DAB, water volume 200 L/ha) was 0 and the “Phytotoxicity (PHYGEN)” value (Rice; Trial 3, 10 DAB, water volume 500 L/ha) was 0. For the same compound, the “Phytotoxicity (PHYGEN)” value (Rice; Trial 3, 14 DAB, water volume 200 L/ha) was 0, the “Phytotoxicity (PHYGEN)” value (Rice; Trial 3, 14 DAB, water volume 500 L/ha) was 0 and the “Phytotoxicity (PHYGEN)” value (Rice; Trial 3, 21 DAB, water volume 200 L/ha) was 0. The “Phytotoxicity (PHYGEN)” value (Rice; Trial 3, 21 DAB, water volume 500 L/ha) was 0, the “Phytotoxicity (PHYGEN)” value (Rice; Trial 4, 0 DAA, water volume 200 L/ha) was 0 and the “Phytotoxicity (PHYGEN)” value (Rice; Trial 4, 0 DAA, water volume 500 L/ha) was 0. The “Phytotoxicity (PHYGEN)” value (Rice; Trial 4, 0 DAB, water volume 200 L/ha) was 0, the “Phytotoxicity (PHYGEN)” value (Rice; Trial 4, 0 DAB, water volume 500 L/ha) was 0 and the “Phytotoxicity (PHYGEN)” value (Rice; Trial 4, 7 DAA, water volume 200 L/ha) was 0. The “Phytotoxicity (PHYGEN)” value (Rice; Trial 4, 7 DAA, water volume 500 L/ha) was 0, the “Phytotoxicity (PHYGEN)” value (Rice; Trial 4, 7 DAB, water volume 200 L/ha) was 0 and the “Phytotoxicity (PHYGEN)” value (Rice; Trial 4, 7 DAB, water volume 500 L/ha) was 0. The “Phytotoxicity (PHYGEN)” value (Rice; Trial 4, 10 DAA, water volume 200 L/ha) was 0, the “Phytotoxicity (PHYGEN)” value (Rice; Trial 4, 10 DAA, water volume 500 L/ha) was 0 and the “Phytotoxicity (PHYGEN)” value (Rice; Trial 4, 10 DAB, water volume 200 L/ha) was 0. The “Phytotoxicity (PHYGEN)” value (Rice; Trial 4, 10 DAB, water volume 500 L/ha) was 0, the “Phytotoxicity (PHYGEN)” value (Rice; Trial 4, 14 DAB, water volume 200 L/ha) was 0 and the “Phytotoxicity (PHYGEN)” value (Rice; Trial 4, 14 DAB, water volume 500 L/ha) was 0. The “Phytotoxicity (PHYGEN)” value (Rice; Trial 4, 21 DAB, water volume 200 L/ha) was 0, the “Phytotoxicity (PHYGEN)” value (Rice; Trial 4, 21 DAB, water volume 500 L/ha) was 0 and the “# Insects, % UNCK” value (Diabrotica speciosa; Trial 1, potato, 3 DAA) was 67.74b % UNCK. For the same compound, the “# Insects, % UNCK” value (Diabrotica speciosa; Trial 1, potato, 3 DAA, listed as PA 487.5 g/ha) was 48.39ab % UNCK, the “# Insects, % UNCK” value (Diabrotica speciosa; Trial 1, potato, 3 DAA, listed as PA 812.5 g/ha) was 64.52b % UNCK and the “# Insects, % UNCK” value (Diabrotica speciosa; Trial 1, potato, 3 DAA, listed as PA 975 g/ha) was 74.19b % UNCK. The “# Insects, % UNCK” value (Diabrotica speciosa; Trial 1, potato, 3 DAB) was 84.21c % UNCK, the “# Insects, % UNCK” value (Diabrotica speciosa; Trial 1, potato, 3 DAB, listed as PA 487.5 g/ha) was 34.2b1 % UNCK and the “# Insects, % UNCK” value (Diabrotica speciosa; Trial 1, potato, 3 DAB, listed as PA 812.5 g/ha) was 86.84c % UNCK. For the same compound, the “# Insects, % UNCK” value (Diabrotica speciosa; Trial 1, potato, 3 DAB, listed as PA 975 g/ha) was 84.21c % UNCK, the “# Insects, % UNCK” value (Diabrotica speciosa; Trial 1, potato, 7 DAA) was 55.88abc % UNCK and the “# Insects, % UNCK” value (Diabrotica speciosa; Trial 1, potato, 7 DAA, listed as PA 487.5 g/ha) was 29.4ab % UNCK. The “# Insects, % UNCK” value (Diabrotica speciosa; Trial 1, potato, 7 DAA, listed as PA 812.5 g/ha) was 61.76bc % UNCK, the “# Insects, % UNCK” value (Diabrotica speciosa; Trial 1, potato, 7 DAA, listed as PA 975 g/ha) was 64.71bc % UNCK and the “# Insects, % UNCK” value (Diabrotica speciosa; Trial 1, potato, 7 DAB) was 81.08b % UNCK. The “# Insects, % UNCK” value (Diabrotica speciosa; Trial 1, potato, 7 DAB, listed as PA 487.5 g/ha) was 54.05b % UNCK, the “# Insects, % UNCK” value (Diabrotica speciosa; Trial 1, potato, 7 DAB, listed as PA 812.5 g/ha) was 83.78b % UNCK and the “# Insects, % UNCK” value (Diabrotica speciosa; Trial 1, potato, 7 DAB, listed as PA 975 g/ha) was 83.78b % UNCK. For the same compound, the “# Insects, % UNCK” value (Diabrotica speciosa; Trial 2, potato, 3 DAA) was 61.90bc % UNCK, the “# Insects, % UNCK” value (Diabrotica speciosa; Trial 2, potato, 3 DAA, listed as PA 487.5 g/ha) was 38.10b % UNCK and the “# Insects, % UNCK” value (Diabrotica speciosa; Trial 2, potato, 3 DAA, listed as PA 812.5 g/ha) was 80.95cd % UNCK. The “# Insects, % UNCK” value (Diabrotica speciosa; Trial 2, potato, 3 DAA, listed as PA 975 g/ha) was 95.24de % UNCK, the “# Insects, % UNCK” value (Diabrotica speciosa; Trial 2, potato, 3 DAB) was 25.00ab % UNCK and the “# Insects, % UNCK” value (Diabrotica speciosa; Trial 2, potato, 3 DAB, listed as PA 487.5 g/ha) was 25.00ab % UNCK. For the same compound, the “# Insects, % UNCK” value (Diabrotica speciosa; Trial 2, potato, 3 DAB, listed as PA 812.5 g/ha) was 28.57b % UNCK, the “# Insects, % UNCK” value (Diabrotica speciosa; Trial 2, potato, 3 DAB, listed as PA 975 g/ha) was 53.57c % UNCK and the “# Insects, % UNCK” value (Diabrotica speciosa; Trial 2, potato, 7 DAA) was 38.10b % UNCK. The “# Insects, % UNCK” value (Diabrotica speciosa; Trial 2, potato, 7 DAA, listed as PA 487.5 g/ha) was 23.81ab % UNCK, the “# Insects, % UNCK” value (Diabrotica speciosa; Trial 2, potato, 7 DAA, listed as PA 812.5 g/ha) was 85.71c % UNCK and the “# Insects, % UNCK” value (Diabrotica speciosa; Trial 2, potato, 7 DAA, listed as PA 975 g/ha) was 100.00d % UNCK. The “# Insects, % UNCK” value (Diabrotica speciosa; Trial 2, potato, 7 DAB) was 87.50bc % UNCK, the “# Insects, % UNCK” value (Diabrotica speciosa; Trial 2, potato, 7 DAB, listed as PA 487.5 g/ha) was 70.83b % UNCK and the “# Insects, % UNCK” value (Diabrotica speciosa; Trial 2, potato, 7 DAB, listed as PA 812.5 g/ha) was 91.67c % UNCK. For the same compound, the “# Insects, % UNCK” value (Diabrotica speciosa; Trial 2, potato, 7 DAB, listed as PA 975 g/ha) was 100.00c % UNCK, the “# Insects, % UNCK” value (Diabrotica speciosa; Trial 2, potato, 10 DAB) was 86.96bc % UNCK and the “# Insects, % UNCK” value (Diabrotica speciosa; Trial 2, potato, 10 DAB, listed as PA 487.5 g/ha) was 68.57b % UNCK. For the same compound, the “# Insects, % UNCK” value (Diabrotica speciosa; Trial 2, potato, 10 DAB, listed as PA 812.5 g/ha) was 91.30c % UNCK and the “# Insects, % UNCK” value (Diabrotica speciosa; Trial 2, potato, 10 DAB, listed as PA 975 g/ha) was 100.00c % UNCK.
